Data set [1] in a line: Distribution in plasma, lung homogenate, ELF and AMs after oral dose. The data set is classed as in vivo, Sprague-Dawley rats. As to conditions: rat, single oral dose 100 mg/kg; for concentration at 8 h / concentration at 30 h / concentration at 0.083 h / concentration at 0.5 h: both sexes, Sprague-Dawley. On the procedure: After the oral administration of 100 mg/kg IMB-YH-4py5-2H, rats from each group (six rats per group and three rats per sex) were sacrificed at 5 min, 0.5 h, 8 h, and 30 h. Rat lungs were collected, rinsed with saline, wiped dry, accurately weighed and homogenized with ultrapure water. The homogenate was kept at −20°C until analysis.
As two representative infectious sites in lower respiratory tract infections, lung epithelial lining fluid (ELF) and alveolar macrophages (AMs) were investigated to determine the distribution of IMB-YH-4py5-2H. Freshly collected rat lungs were lavaged three times from the trachea with 5 mL of ice-cold phosphate buffer (pH 7.4). The lavage fluid was centrifuged at 4°C (650 × g, 5 min) to separate AMs from the ELF, immediately. The cell counts of the resuspended AMs were assessed by using the haemocytometer. The AMs were extracted with 1 mL of 0.1 M NaOH for analysis. To calculate the concentrations of IMB-YH-4py5-2H in ELF and AMs, reported data were employed. As reported, the total volume of ELF was estimated to be 393 μL/rat (~200 g body weight), and the intracellular volume of a single AM was 1166 μm^3 [25]. Based on the reported volume of a single AM, the raw data of IMB-YH-4py5-2H concentrations in AMs, expressed as ng/10^5 cells, were converted to the values with the unit of μg/mL (Eq 1), which was consistent with the unit of concentrations in plasma and ELF and easier for comparison.
CAM (μg/mL) is the concentration of IMB-YH-4py5-2H expressed as μg/mL, CAM (ng/10^5 cells) is the concentration with the unit of ng/10^5 cell, and V is the volume of a single AM (1166 μm^3).
The homogenate, ELF, and AM samples were processed as described in “Sample processing” and injected into the LC-MS/MS system for analysis.

Data set [2] in a line: Metabolic stability assay in human liver microsomes. As to conditions: pH 7.4, HLMs 0.1 mg/mL, 37°C, NADPH. The format is in vitro ADME. On the procedure: IMB-YH-4py5-2H was incubated at 37°C for 0, 15, 30, 45, and 60 min in human liver microsomes (HLMs) for the metabolic stability study. The incubation system included 0.1 mg/mL pooled liver microsomes, 100 mM phosphate-buffered saline (PBS, pH 7.4), NADPH regeneration system (the final concentration contained 3.3 mM glucose-6-phosphate, 1.3 mM NADP^+, 0.4 U/mL glucose-6-phosphate dehydrogenase and 3.3 mM MgCl2), and 1 μM IMB-YH-4py5-2H.
(§1) After incubation, the samples were processed as described in “Sample processing”. All experiments were performed in triplicate. The concentration of IMB-YH-4py5-2H was measured using LC-MS/MS analysis.
For orientation: Liver microsomes are vesicles of endoplasmic reticulum, rich in cytochrome P450 enzymes.

The next data set concerns the target T1, CYP1A2 (Homo sapiens, UniProt P05177).
T1 construct: purchased Corning (Woburn, MA, USA)
T1 sequence (P05177 1-516): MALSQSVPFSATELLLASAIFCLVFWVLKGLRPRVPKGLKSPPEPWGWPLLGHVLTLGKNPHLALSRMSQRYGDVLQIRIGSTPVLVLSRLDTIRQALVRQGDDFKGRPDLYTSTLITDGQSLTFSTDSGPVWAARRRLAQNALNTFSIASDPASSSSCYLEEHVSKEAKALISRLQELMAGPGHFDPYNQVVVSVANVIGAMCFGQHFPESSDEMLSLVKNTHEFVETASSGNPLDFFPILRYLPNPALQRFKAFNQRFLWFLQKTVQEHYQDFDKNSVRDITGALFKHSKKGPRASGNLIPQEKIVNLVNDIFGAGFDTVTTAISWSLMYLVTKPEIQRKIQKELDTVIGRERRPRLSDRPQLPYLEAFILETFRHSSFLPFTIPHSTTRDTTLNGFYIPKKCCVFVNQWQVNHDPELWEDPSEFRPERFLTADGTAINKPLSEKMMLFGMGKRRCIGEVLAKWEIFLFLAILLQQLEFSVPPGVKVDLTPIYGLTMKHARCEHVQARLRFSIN
Description: Metabolism by recombinant human P450 enzyme. The data set is classed as in vitro ADME. As to conditions: recombinant CYP1A2 0.05 nmol/mL, 1 μM, 30 min. On the procedure:
(§2) In addition, to characterize the enzymes that may be involved in microsomal metabolism, IMB-YH-4py5-2H was incubated at 37°C for 30 min with different recombinant human P450 enzymes, i.e., CYP1A2, CYP2A6, CYP2B6, CYP2C8, CYP2C9, CYP2C19, CYP2D6, CYP2E1, CYP3A4 and CYP3A5. The incubation system included CYP isoenzyme at a final concentration of 0.05 nmol/mL, 100 mM PBS (pH 7.4) or 100 mmol/L Tris buffer (pH 7.5, Tris buffer was used in the CYP2C9 and CYP2A6 reaction systems and PBS was used for the other enzymes), NADPH regeneration system, and 1 μM IMB-YH-4py5-2H.
as §1

The target of the next data set is T2, CYP2A6 (Homo sapiens, UniProt P11509).
T2 construct: purchased Corning (Woburn, MA, USA)
T2 sequence (P11509 1-494): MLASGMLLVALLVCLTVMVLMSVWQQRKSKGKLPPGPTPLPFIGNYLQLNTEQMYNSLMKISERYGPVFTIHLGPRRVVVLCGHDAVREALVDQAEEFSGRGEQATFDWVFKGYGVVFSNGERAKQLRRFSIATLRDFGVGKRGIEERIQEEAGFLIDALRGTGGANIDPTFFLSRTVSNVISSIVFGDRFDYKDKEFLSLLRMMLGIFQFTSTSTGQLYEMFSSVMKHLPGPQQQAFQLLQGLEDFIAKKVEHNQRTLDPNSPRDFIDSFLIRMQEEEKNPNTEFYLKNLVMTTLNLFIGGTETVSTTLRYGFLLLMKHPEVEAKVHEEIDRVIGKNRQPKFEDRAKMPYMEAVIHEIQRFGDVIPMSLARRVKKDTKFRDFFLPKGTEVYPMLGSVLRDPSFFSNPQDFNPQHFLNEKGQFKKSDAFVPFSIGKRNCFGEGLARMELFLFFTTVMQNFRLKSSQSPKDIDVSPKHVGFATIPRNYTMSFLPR
The data set can be described thus: Metabolism by recombinant human P450 enzyme. The format is in vitro ADME. As to conditions: recombinant CYP2A6 0.05 nmol/mL, 1 μM, 30 min. On the procedure:
as §2, §1

The conditions of data set [3]: compared with YH-8; method and reference not given; cited from earlier work.

Entries after “also recorded” stand apart in the source; their conditions may differ. Like-named read-outs stand apart in the source and are kept apart here. A value given as a limit tells only on which side of the number the result lay.

As for `CN(C)C(=O)/C=C/C(=O)c1ccc(-c2ccncc2)cc1.Cl` [IMB-YH-4py5-2H, (E)-N,N-dimethyl-4-oxo-4-(4-(pyridin-4-yl)phenyl)but-2-enamide hydrochloride], the concentration at 8 h in data set [1] (alveolar macrophages (AMs), 8 h, converted with reported volume of a single AM (Eq 1), read-out: Concentration, AMs) came to 99700 ± 36700 ng/mL; in data set [1] (lung epithelial lining fluid (ELF), 8 h, ELF volume taken as 393 μL/rat, read-out: Concentration, ELF), 121 ± 32 ng/mL; in data set [1] (lung homogenate, 8 h, read-out: Concentration, lung homogenate) it was 107 ± 22 ng/g; in data set [1] (plasma, 8 h, read-out: Concentration, Plasma), 155 ± 29 ng/mL. In addition, the concentration at 30 h in data set [1] (alveolar macrophages (AMs), 30 h, converted with reported volume of a single AM (Eq 1), read-out: Concentration, AMs) is 25300 ± 19400 ng/mL; in data set [1] (lung epithelial lining fluid (ELF), 30 h, ELF volume taken as 393 μL/rat, read-out: Concentration, ELF), 50 ± 45 ng/mL; in data set [1] (lung homogenate, 30 h, read-out: Concentration, lung homogenate), 11 ± 3 ng/g; in data set [1] (plasma, 30 h, read-out: Concentration, Plasma), 39 ± 12 ng/mL. Further, the concentration at 0.083 h came to 639 ± 93 ng/mL in data set [1] (lung epithelial lining fluid (ELF), 0.083 h, ELF volume taken as 393 μL/rat, read-out: Concentration, ELF); 4410 ± 607 ng/g in data set [1] (lung homogenate, 0.083 h, read-out: Concentration, lung homogenate); 917 ± 71 ng/mL in data set [1] (plasma, 0.083 h, read-out: Concentration, Plasma). Moreover, the concentration at 0.5 h in data set [1] (lung epithelial lining fluid (ELF), 0.5 h, ELF volume taken as 393 μL/rat, read-out: Concentration, ELF) amounted to 1800 ± 264 ng/mL; in data set [1] (lung homogenate, 0.5 h, read-out: Concentration, lung homogenate) it was 10900 ± 1960 ng/g; in data set [1] (plasma, 0.5 h, read-out: Concentration, Plasma) it was 1060 ± 192 ng/mL. The “Concentration, AMs” value worked out at 166.763±40.110 ng/10^5 cells in data set [1] (0.083 h); 1494.295 ± 359.408 µg/mL in data set [1] (0.083 h, converted with reported volume of a single AM (Eq 1)); 227.198±35.589 ng/10^5 cells in data set [1] (0.5 h); 2035.827 ± 318.898 µg/mL in data set [1] (0.5 h, converted with reported volume of a single AM (Eq 1)); 11.128±4.099 ng/10^5 cells in data set [1] (8 h); 2.823±2.164 ng/10^5 cells in data set [1] (30 h). For the same molecule, the half-life at 1 μM in data set [2] was < 15 min. In addition, the “metabolism by CYP isozyme” value at CYP1A2 and at CYP2A6 was “high metabolic activity” each time. Besides, in data set [3], the water solubility result is recorded as “better water solubility; also recorded: improved water solubility”.

One may read the half-life as the time in which the quantity being followed falls by half. A low value points to fast loss.

The record behind these values is publication PMC7029871, “Development and validation of a sensitive LC-MS/MS method for the quantitation of IMB-YH-4py5-2H, an antituberculosis candidate, and its application to the pharmacokinetic study” (PLoS ONE, 2020).
